Experimental data: patent publication US8133849B2, “Herbicidal compounds” (Syngenta Limited, priority 2007, dated 2012)

Experiments:
Assay in all cases: Example B2 herbicidal action, post-emergence, pots in glasshouse, damage score 0-10
Type in all cases: in vivo
Settings in all cases: application post-emergence, rate 1000 g/ha, evaluated after 13 days
Amaranthus retroflexus = system: Amaranthus retroflexus
Experimental: (§1) Seeds of a variety of test species were sown in standard soil in pots. After 8 days cultivation (post-emergence) under controlled conditions in a glasshouse (at 24/16° C., day/night; 14 hours light; 65% humidity), the plants were sprayed with an aqueous spray solution derived from the formulation of the technical active ingredient in acetone/water (50:50) solution containing 0.5% Tween 20 (polyoxyethelyene sorbitan monolaurate, CAS RN 9005-64-5). The test plants were then grown in a glasshouse under controlled conditions in a glasshouse (at 24/16° C., day/night; 14 hours light; 65% humidity) and watered twice daily. After 13 days, the test was evaluated (10=total damage to plant; 0=no damage to plant).

Echinochloa crus-galli = system: Echinochloa crus-galli
Experimental: as §1

Ipomea hederaceae = system: Ipomea hederaceae
Experimental: as §1

Setaria faberi = system: Setaria faberi
Experimental: as §1

Solanum nigrum = system: Solanum nigrum
Experimental: as §1

| Compound | AMARE damage score (10=total damage to plant; 0=no damage to plant) (Amaranthus retroflexus) | ECHCG damage score (10=total damage to plant; 0=no damage to plant) (Echinochloa crus-galli) | IPOHE damage score (10=total damage to plant; 0=no damage to plant) (Ipomea hederaceae) | SETFA damage score (10=total damage to plant; 0=no damage to plant) (Setaria faberi) | SOLNI damage score (10=total damage to plant; 0=no damage to plant) (Solanum nigrum) |
| --- | --- | --- | --- | --- | --- |
| O=C(OC1=C(c2c(Cl)cccc2C(F)(F)F)S(=O)(=O)N(CC(F)F)c2nccnc21)Sc1ccccc1 [Compound C125] | 9 | 8 | 8 | 8 | 9 |
| O=S1(=O)C(c2c(C(F)(F)F)cccc2C(F)(F)F)=C(O)c2nccnc2N1CC(F)F [Compound D42] | 7 | 4 | 9 | 7 | 8 |
| CCN1c2nccnc2C(O)=C(c2ccccc2C(F)(F)F)S1(=O)=O [Compound D33] | 9 | 8 | 10 | 8 | 10 |
| CS(=O)(=O)OC1=C(c2cc(C(F)(F)F)ccc2Cl)S(=O)(=O)N(CC(F)F)c2nccnc21 [Compound C95] | 7 | 6 | 10 | 3 | 9 |
| CC(C)C(=O)OC1=C(c2ccccc2[N+](=O)[O-])S(=O)(=O)N(CC(F)F)c2nccnc21 [Compound C65] | 2 | 0 | 1 | 2 | 2 |
| O=S1(=O)C(c2ccc(Cl)cc2Cl)=C(O)c2nccnc2N1CC(F)(F)F [Compound D51] | 7 | 2 | 7 | 1 | 8 |
| Cc1ccc(C(F)(F)F)c(C2=C(OC(=O)C(C)(C)C)c3nccnc3N(CC(F)F)S2(=O)=O)c1 [Compound C148] | 7 | 3 | 8 | 2 | 9 |
| CC(C)(C)C(=O)OC1=C(c2c(F)ccc(Br)c2Cl)S(=O)(=O)N(CC(F)F)c2nccnc21 [Compound C35] | 10 | 7 | 10 | 7 | 10 |
| CCSC(=O)OC1=C(c2cc(C(F)(F)F)ccc2Br)S(=O)(=O)N(CC(F)F)c2nccnc21 [Compound C60] | 10 | 7 | 10 | 1 | 10 |
| CC#CCN1c2nccnc2C(OC(=O)SCC)=C(c2c(Cl)ccc(Cl)c2C(F)(F)F)S1(=O)=O [Compound C97] | 0 | 1 | 4 | 0 | 6 |
| O=S1(=O)C(c2cccc(Cl)c2Cl)=C(O)c2nccnc2N1CC(F)F [Compound D50] | 5 | 1 | 8 | 2 | 10 |
| CC(C)C(=O)OC1=C(c2cc(C(F)(F)F)ccc2Br)S(=O)(=O)N(CC(F)F)c2nccnc21 [Compound C59] | 10 | 7 | 10 | 3 | 10 |
| CCN1c2nccnc2C(OC(=O)C(C)(C)C)=C(c2cccc(C(F)(F)F)c2Cl)S1(=O)=O [Compound C76] | 0 | 0 | 0 | 0 | 3 |
| COc1ccc(Cl)c(C2=C(OC(=O)C(C)(C)C)c3nccnc3N(CC(F)F)S2(=O)=O)c1F [Compound C144] | 0 | 0 | 7 | 0 | 4 |
| CCN1c2nccnc2C(O)=C(c2c(F)ccc(Br)c2Cl)S1(=O)=O [Compound D13] | 8 | 5 | 9 | 2 | 9 |
| C=C(C)CN1c2nccnc2C(OC(=O)C(C)(C)C)=C(c2cccc(Cl)c2Cl)S1(=O)=O [Compound C140] | 0 | 0 | 2 | 0 | 2 |
| CCN1c2nccnc2C(O)=C(c2cc(Cl)ccc2C(F)(F)F)S1(=O)=O [Compound D52] | 5 | 4 | 5 | 4 | 7 |
| CC(C)C(=O)OC1=C(c2c(Cl)ccc(Cl)c2Cl)S(=O)(=O)N(CC(F)F)c2nccnc21 [Compound C38] | 9 | 9 | 10 | 9 | 10 |
| Cc1ccc(F)c(C2=C(O)c3nccnc3N(CC(F)F)S2(=O)=O)c1Cl [Compound D12] | 6 | 0 | 5 | 2 | 9 |
| CC(C)(C)C(=O)OC1=C(c2ccccc2I)S(=O)(=O)N(CC(F)F)c2nccnc21 [Compound C81] | 10 | 8 | 10 | 7 | 10 |
| O=S1(=O)C(c2cc(Cl)ccc2C(F)(F)F)=C(O)c2nccnc2N1CC(F)F [Compound D53] | 8 | 6 | 7 | 6 | 10 |
| CC(C)C(=O)OC1=C(c2c(Cl)ccc(Cl)c2C(F)(F)F)S(=O)(=O)N(CC(F)F)c2nccnc21 [Compound C53] | 8 | 8 | 4 | 5 | 5 |
| CCSC(=O)OC1=C(c2c(F)ccc(Br)c2Cl)S(=O)(=O)N(CC(F)F)c2nccnc21 [Compound C107] | 5 | 5 | 6 | 3 | 7 |
| CCN1c2nccnc2C(O)=C(c2cccc(C(F)(F)F)c2)S1(=O)=O [Compound D3] | 10 | 1 | 1 | 0 | 1 |
| O=S1(=O)C(c2cccc(C(F)(F)F)c2Cl)=C(O)c2nccnc2N1CC(F)F [Compound D37] | 10 | 3 | 10 | 5 | 9 |
| CC(C)C(=O)OC1=C(c2ccccc2Br)S(=O)(=O)N(CC(F)F)c2nccnc21 [Compound C39] | 9 | 4 | 9 | 4 | 10 |
